{"source": "paper PMC6581955", "about": "“Rosmarinic acid suppresses Alzheimer’s disease development by reducing amyloid β aggregation by increasing monoamine secretion” (Scientific Reports, 2019)", "key": {"[1]": {"assay": "Side effects in the animal study", "format": "in vivo, mice", "conditions": "RA-fed animals"}, "[2]": {"system": "monoamines in cerebral cortex, striatum, hippocampus", "assay": "Monoamine concentration in brain regions after single dose or 11 days of RA", "format": "in vivo, mice", "description": "In order to examine the effect of a single dose of RA, we conducted intragastric administration of RA at 0.1 m mol/kgBW to wild type mice and measured the monoamine concentration in three brain regions (cerebral cortex, striatum, and hippocampus) after 0, 60, and 240 min. […] Therefore, we extended the RA administration period to 11 days."}, "[3]": {"conditions": "cited from earlier work"}, "[4]": {"system": "DA in brain sections", "assay": "DA imaging by IMS (MALDI-TOFMS)", "format": "in vivo, C57BL/6 J mice", "conditions": "0.5% RA diet for 10 days", "description": "Because it has been reported that isoflurane anesthesia increases the release of DA in rat striatum, we adopted decapitation after cervical dislocation without anesthesia to euthanize the mice after 10 days of breeding (C and RA group). The left hemisphere of the brain of each mouse was collected, then sagittal sections 8 μm thick were prepared using a cryostat (CM-3050 S; LEICA, Germany) at −25 °C and mounted on a glass slide coated with indium tin oxide. Sections were sprayed with DPP and incubated at 40 °C for 30 min, and then sprayed with 2,5-dihydroxybenzoic acid to improve ionization efficiency. The surface of the sections was ionized by irradiation with laser light at 200 μm intervals using an Ultrafle Xtreme (matrix-assisted laser desorption/ionization time-of-flight mass spectrometer) (MALDI-TOFMS) (Bruker Daltonik GmbH, Bremen, Germany). The peak of DPP-derivatized DA (m/z: 368.2), which constitutes a complex of the target substance (DA) and DPP, was measured two-dimensionally. Only DA that could be derivatized was measured."}, "[5]": {"system": "Aβ", "design": "method as in PMID 14994335", "conditions": "screen of five polyphenols; cited from earlier work"}, "[6]": {"system": "brain monoamines", "assay": "Monoamine concentration in the whole brain of mice fed RA for 7 weeks (HPLC-ECD)", "format": "in vivo, C57BL/6 J mice", "conditions": "0.5% RA diet for 7 weeks vs control", "description": "The whole brain was collected under isoflurane anesthesia after 7 weeks of breeding (C and RA group). Buffer (2.0 mM NaHSO3, 20 μM EDTA • 2Na, 0.10 M HClO4; 1 mL/0.1 g of brain tissue) was added to the brain sample, the mixture was then homogenized with a Polytron and centrifuged at 12,000 × g at 4 °C for 5 min to obtain a brain extract supernatant. The supernatants were recovered, passed through 0.45 μm filters, and the concentration of monoamines in the filtrates was measured using HPLC-ECD. The conditions of chromatography were given in Supplemental Methods."}, "[7]": {"system": "Aβ", "design": "method as in PMID 19893028", "conditions": "Tg2576 mice, cited from earlier work"}, "[8]": {"system": "brain capillary endothelial cell monolayers", "assay": "BBB permeability in an in vitro BBB model (BBB Kit)", "format": "in vitro ADME", "conditions": "caffeine positive, Na-F negative control, n = 3", "description": "We measured the BBB permeability by using the BBB Kit (PharmaCo-Cell, Nagasaki, Japan) according to the manufacturer’s instructions. CA was used as a positive control, and Na-F as a negative control. The concentration of the assay buffer on the brain parenchyma side was measured by HPLC–ECD as per the in vivo RA transferability test. Na-F was measured with Ex/Em = 485/538 nm using a FlexStarion 3-fluorescence-plate reader (Molecular Devices, CA, USA). The permeability coefficient (Pe: × 10^−6 cm/sec) was calculated as follows using the concentration of the test substance added to the luminal side ([C]Luminal), the concentration of test compound that passed through to the […] every 20 minutes ([C]Abluminal), and the amount on the brain parenchyma side (VAbluminal). Volume(µL)=([C]Abluminal×VAbluminal)/[C]Luminal The amount of permeation was plotted every 20 min and the value of the slope of the formula of the quantity transmitted for each time was used as the permeation index (PS). […] 1/PSendothelial=1/PStotal−1/PSmembrane Pe was calculated by dividing PSendothelial by the insert surface area (A). […]"}, "[9]": {"assay": "In vivo RA transferability test (HPLC-ECD of plasma and brain)", "design": "species or system C57BL/6 J mice", "conditions": "C57BL/6 J, mouse, plasma, oral, 0.5 % (fed), mice fed 0.5% RA for 7 weeks, mean ± S.E. (n = 5)", "description": "The blood and whole brain were collected under isoflurane anesthesia after 7 weeks of breeding (C and RA group). The blood samples were centrifuged at 1,800 × g at 4 °C for 10 min to obtain EDTA plasma.\nPhosphate-buffered saline (PBS) (1 mL/0.1 g of brain tissue) was added to the brain tissue sample and homogenized with a Polytron homogenizer. After that, the samples were centrifuged at 4,000 × g at 4 °C for 40 min to obtain the brain extract supernatant. The plasma and brain extract were processed as follows. In the β-glucuronidase-treated group, 50 μL of plasma or brain extract was suspended in 50 μL of 200 U β-glucuronidase and 0.1 M sodium acetate buffer (pH 5.0). Then the samples were incubated at 37 °C for 45 min. In the non-treated group, 50 μL of plasma or brain extract were suspended in 50 μL of 0.1 M sodium acetate buffer and incubated as above. After incubation, 200 μL of 0.83 M methyl acetate buffer was added to the samples of both groups, the protein was precipitated by vortex stirring for 1 minute, treated with sonication for 1 minute, and centrifuged at 8,500 × g at 4 °C for 5 min. The supernatants were recovered and passed through 0.45 μm filters, and the concentrations of RA and metabolites in the filtrates were measured using an Ultimate 3000 HPLC-ECD (Thermo Fisher scientific, Massachusetts, US). The conditions of chromatography were the same as the previous report."}, "[10]": {"system": "mRNA of DA-metabolizing enzymes, Tieg2, Tgf-β1", "assay": "Relative mRNA measurement in cerebral cortex, SN and VTA by qRT-PCR", "format": "in vivo, C57BL/6 J mice", "source_text": "The mice were divided into two groups, C and RA, as mentioned above, and fed with the appropriate diet for 11 days. We collected SN and VTA from the brain according to methods previously described. In brief, we collected the whole brain, washed it with saline, and obtained 1 mm thick coronal sections using a brain slicer BS-Z 2000C (Muromachi Kikai Co., Ltd., Tokyo, Japan). Referring to the Allen Brain Atlas[55], we acquired the SN and VTA from the relevant sections.\nTotal RNA was extracted from SN, and VTA using TRIzol (Invitrogen) according to the manufacturer’s manual. After checking the quality of total RNA, we synthesized cDNA using PrimeScript^TM RT Master Mix (Perfect Real Time) (TaKaRa Bio, Shiga, Japan). The primer sequences and conditions for our qRT–PCR are given in Suppl. Table S1 and Supplemental Methods. Results are expressed as mean of fold change compared with control condition (SE as error bars, n = 5, 6). All samples were tested in triplicate and the data were normalized to GAPDH (cerebral cortex) or β-actin (SN and VTA)."}, "[11]": {"conditions": "0.5% RA diet 11 days vs controls, P < 0.05"}, "[12]": {"conditions": "RA diet 11 days, normalized to β-actin"}}, "data": [{"smiles": "O=C(/C=C/c1ccc(O)c(O)c1)O[C@H](Cc1ccc(O)c(O)c1)C(=O)O", "note": "[RA, rosmarinic acid]", "values": [{"measurement": "side effects including nausea and vomiting", "setting": "[1]", "result": "not observed"}, {"measurement": "DOPAC level in cerebral cortex", "setting": "[2]; [11]", "result": "increased significantly"}, {"measurement": "L-DOPA level in cerebral cortex", "setting": "[2]; [11]", "result": "increased significantly"}, {"measurement": "NE level in cerebral cortex", "setting": "[2]; [11]", "result": "increased significantly"}, {"measurement": "DA level in cerebral cortex", "setting": "[2]; 0.5% RA diet 11 days vs controls, P = 0.068", "result": "somewhat increased"}, {"measurement": "monoamine concentration in striatum and hippocampus", "setting": "[2]; RA diet 11 days, data not shown", "result": "not significantly changed"}, {"measurement": "monoamine concentration in cerebral cortex, striatum and hippocampus", "setting": "[2]; single intragastric dose 0.1 m mol/kgBW, 0, 60, 240 min, data not shown", "result": "no significant differences"}, {"measurement": "intestinal permeability", "setting": "[3]; orally ingested polyphenols", "result": "~1", "unit": "%"}, {"measurement": "intestinal permeability, of intake volume", "setting": "[3]; previous in vitro study", "result": "< 1", "unit": "%"}, {"measurement": "DPP-derivatized DA signals in cerebral cortex and striatum", "setting": "[4]", "result": "more strongly than in control group"}, {"measurement": "Aβ aggregation in vitro", "setting": "[5]", "result": "significantly inhibited"}, {"measurement": "DA concentration in whole brain", "setting": "[6]", "result": "changed but not significantly"}, {"measurement": "DOPAC concentration in whole brain", "setting": "[6]", "result": "significantly increased"}, {"measurement": "L-DOPA concentration in whole brain", "setting": "[6]", "result": "significantly increased"}, {"measurement": "NE concentration in whole brain", "setting": "[6]", "result": "changed but not significantly"}, {"measurement": "Aβ deposition in the brain (immunohistochemistry)", "setting": "[7]; RA diet for 10 months", "result": "significantly decreased"}, {"measurement": "Aβ aggregation inhibitory activity in the brain, among five polyphenols", "setting": "[7]", "result": "highest"}, {"measurement": "transendothelial permeability (Pe)", "setting": "[8]", "result": "lowest value"}, {"measurement": "concentration at 7 weeks", "setting": "[9]; β-glucuronidase not reacted", "result": "590 ± 220", "unit": "nM"}, {"measurement": "concentration at 7 weeks", "setting": "[9]; β-glucuronidase reacted", "result": "750 ± 150", "unit": "nM"}, {"measurement": "Tgf-β1 gene expression in SN and VTA", "setting": "[10]; RA diet 11 days", "result": "significantly downregulated"}, {"measurement": "Tieg2 gene expression in SN and VTA", "setting": "[10]; RA diet 11 days vs controls", "result": "significantly decreased"}, {"measurement": "Th mRNA level in cerebral cortex", "setting": "[10]; RA diet 11 days, P = 0.13", "result": "somewhat increased"}, {"measurement": "mRNA levels of DA-metabolizing enzymes in cerebral cortex", "setting": "[10]; RA diet 11 days, normalized to GAPDH", "result": "no significant difference"}, {"measurement": "Comt mRNA expression in SN", "setting": "[10]; [12]", "result": "significantly downregulated"}, {"measurement": "Maob mRNA expression in SN", "setting": "[10]; [12]", "result": "significantly downregulated"}, {"measurement": "Maob mRNA expression in VTA", "setting": "[10]; [12]", "result": "significantly downregulated"}]}]}
